Experimental data from patent US20230391714A1, “INHIBITORS OF THE INTERACTION BETWEEN TRIP8B AND HCN CHANNELS AND USES THEREOF FOR TREATING NEUROLOGICAL DISEASES AND DISORDERS” (Northwestern University, priority 2022, published 2023).
Where two headings read alike, the source gives them in different places.

Molecular target: TRIP8b-HCN1c40 (Homo sapiens (Human), UniProt Q8IYB4)
Test: TRIP8b-HCN1c40 AlphaScreen assay
Type: binding
Procedure: AlphaScreen Assay. 20 nM ofGST-tagged HCNlc40 protein (corresponding to the C terminal 40 amino acids of HCN1) was incubated with 200 nM of His-tagged TRIP8b(241-602) and varying concentrations of the test compound as described in our prior report (Han et al., 2015). After a 3 h incubation, anti-GST AlphaScreen acceptor beads were added for 1.5 h followed by AlphaScreen nickel chelate donor beads for 1.5 h. AlphaScreen signal was quantified using a PerkinElmer (Waltham, MA) EnSpire multimode plate reader.

[1] = read-out: TRIP8b-HCN1c40 Alphascreen IC50
[2] = activity ranges, read-out: TRIP8b-HCN1c40 Alphascreen IC50 activity

TRIP8b-HCN1c40, sequence (Q8IYB4 265-626): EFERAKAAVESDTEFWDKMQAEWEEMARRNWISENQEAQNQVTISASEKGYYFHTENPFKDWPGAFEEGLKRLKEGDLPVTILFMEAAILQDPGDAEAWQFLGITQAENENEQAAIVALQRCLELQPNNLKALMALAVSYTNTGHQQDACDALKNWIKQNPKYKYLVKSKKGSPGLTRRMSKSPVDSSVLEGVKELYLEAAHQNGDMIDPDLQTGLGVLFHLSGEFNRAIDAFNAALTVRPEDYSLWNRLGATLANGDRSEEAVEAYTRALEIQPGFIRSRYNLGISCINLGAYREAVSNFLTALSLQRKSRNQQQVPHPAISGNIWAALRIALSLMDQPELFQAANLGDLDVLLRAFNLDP

Row | Compound | IC50 [1] [µM] | IC50 [2] [µM]
1 | CCN(CC)C(=O)COc1ccc(-c2ccc(F)cc2)cc1CN1CCN(C)CC1 [NUCC-0201100] | 150 | 
2 | CN1CCN(Cc2cc(-c3ccc(F)cc3)ccc2OCC(=O)NC2CC2)CC1 [NUCC-0201101] | 110 | 
3 | CN1CCN(Cc2cc(-c3ccc(F)cc3)ccc2OCC(=O)N(C)Cc2ccccc2)CC1 [NUCC-0201102] | 91 | 
4 | CN1CCN(Cc2cc(-c3ccc(F)cc3)ccc2OCC(=O)NCc2ccc(C(F)(F)F)cc2)CC1 [NUCC-0201103] | 15 | 10 to 20
5 | COc1ncc(-c2ccc(OCC(=O)NCc3ccc(Cl)cc3)c(CN3CCN(C)CC3)c2)c(OC)n1 [NUCC-0201189] | 92 | 
6 | O=Cc1cc(-c2ccc(F)cc2)ccc1O [NUCC-0201191] | 58 | 
7 | CN1CCN(Cc2cc(OC(F)(F)F)ccc2OCC(=O)NCc2ccc(Cl)cc2)CC1 [NUCC-0201228] | 160 | 
8 | CN1CCN(Cc2cc(Oc3ccc(F)cc3)ccc2OCC(=O)NCc2ccc(Cl)cc2)CC1 [NUCC-0201229] | 7.1 | 5 to 10
9 | CN1CCN(Cc2cc(-c3ccc(F)cc3)ccc2OCC(=O)NCCN2CCCCC2)CC1 [NUCC-0201230] | > 200 | 
10 | Cc1ccc(-c2ccc(OCC(=O)NCc3ccc(S(N)(=O)=O)cc3)c(CN3CCCN(C)CC3)c2)cc1 [NUCC-0201597] | > 40 | 
11 | Cc1ccc(-c2ccc(OCC(=O)NCc3ccccc3)c(CN3CCCN(C)CC3)c2)cc1 [NUCC-0201598] | 20 | 10 to 20
12 | COc1ccc(CNC(=O)COc2ccc(-c3ccc(C)cc3)cc2CN2CCCN(C)CC2)c(OC)c1 [NUCC-0201599] | 15 | 10 to 20
13 | Cc1ccc(-c2ccc(OCC(=O)Nc3ccc4c(c3)OCO4)c(CN3CCCN(C)CC3)c2)cc1 [NUCC-0201600] | 9.2 | 5 to 10
14 | Cc1ccc(-c2ccc(OCC(=O)NCc3ccc(Cl)cc3)c(CN3CCOCC3)c2)cc1 [NUCC-0201604] | 8.1 | 5 to 10
15 | CCN(CCO)Cc1cc(-c2ccc(C)cc2)ccc1OCC(=O)NCc1ccc(O)cc1 [NUCC-0201605] | 35 | 
16 | Cc1ccc(-c2ccc(OCC(=O)N[C@H](C)c3ccccc3)c(CN3CCOCC3)c2)cc1 [NUCC-0201606] | 28 | 20 to 40

Row | Compound | IC50 [1] [µM] | IC50 [2] [µM]
17 | Cc1ccc(-c2ccc(OCC(=O)NCc3ccc(Cl)cc3)c(CN3CCC(N(C)C)CC3)c2)cc1 [NUCC-0201607] | 5.5 | 5 to 10
18 | Cc1ccc(-c2ccc(OCC(=O)Nc3ccc(Cl)cc3)c(CN3CCC(N(C)C)CC3)c2)cc1 [NUCC-0201608] | 7 | 5 to 10
19 | Cc1ccc(-c2ccc(OCC(=O)NCc3ccc(F)cc3)c(CN3CCC(N(C)C)CC3)c2)cc1 [NUCC-0201609] | 16 | 10 to 20
20 | Cc1ccc(-c2ccc(OCC(=O)NCc3cccc(Cl)c3)c(CN3CCC(N(C)C)CC3)c2)cc1 [NUCC-0201610] | 5 | 2 to 5
21 | COc1ccc([C@H](C)NC(=O)COc2ccc(-c3ccc(C)cc3)cc2CN2CCC(N(C)C)CC2)cc1 [NUCC-0201611] | > 40 | 
22 | Cc1ccc(-c2ccc(OCC(=O)NCc3cnc[nH]3)c(CN3CCC(N(C)C)CC3)c2)cc1 [NUCC-0201612] | > 40 | 
23 | Cc1ccc(-c2ccc(OCC(=O)NCc3ccc(Cl)cc3)c(CN3CCNCC3)c2)cc1 [NUCC-0201614] | 7.2 | 5 to 10
24 | CC(C)(C)c1ccc(-c2ccc(OCC(=O)NCc3ccc(Cl)cc3)c(CN3CCNCC3)c2)cc1 [NUCC-0201615] | 6.3 | 5 to 10
25 | CC(C)c1ccc(-c2ccc(OCC(=O)NCc3ccc(Cl)cc3)c(CN3CCNCC3)c2)cc1 [NUCC-0201616] | 5.7 | 5 to 10
26 | Cc1ccccc1-c1ccc(OCC(=O)NCc2ccc(Cl)cc2)c(CN2CCNCC2)c1 [NUCC-0201617] | 7.8 | 5 to 10
27 | Cc1ccc(NC(=O)COc2ccc(-c3cccc(C)c3)cc2CN2CC[C@H](N)C2)cc1 [NUCC-0201618] | 8.8 | 5 to 10
28 | COc1ccc(NC(=O)COc2ccc(-c3cccc(C)c3)cc2CN2CC[C@H](N)C2)cn1 [NUCC-0201619] | 24 | 20 to 40
29 | COc1cc(NC(=O)COc2ccc(-c3cccc(C)c3)cc2CN2CC[C@H](N)C2)cc(OC)c1OC [NUCC-0201620] | 13 | 10 to 20
30 | Cc1cccc(-c2ccc(OCC(=O)Nc3ccc(Cl)c(Cl)c3)c(CN3CC[C@H](N)C3)c2)c1 [NUCC-0201621] | 1.3 | 1 to 2
31 | Cc1cccc(-c2ccc(OCC(=O)Nc3cccc(S(C)(=O)=O)c3)c(CN3CC[C@H](N)C3)c2)c1 [NUCC-0201622] | 19 | 10 to 20
